Assay results published in US7318917B2, “Rapid assays for neurotransmitter transporters” (Vanderbilt University, priority 2002, dated 2008).

Assays:
NET [1] = target: T1, NET (Homo sapiens, UniProt P23975); type: cell-based; parameters: expressed in transfected cells; details: FLEXstation, FIG. 10A
Experimental: (§1) Medium for the transfected lines was supplemented with G418 (250 μg/ml). Trypsin, glutamine, penicillin, streptomycin, G418, and phosphate-free DMEM were purchased from Life Technologies, Inc. or obtained from the Vanderbilt Media Core. For all transport assays, cells were plated on poly-D-lysine (0.1 mg/ml)-coated (0.1 mg/ml)-coated 96-well plates. HEK cells were plated at 12,500 cells per well in 96 well plates, HEK-DAT cells were plated at 15,000 cells per well, HEK-NET cells were plated at 20,000 per well, and HEK-SERT cells were plated at 20,000 per well in a volume of 200 uL. HEK, HEK-DAT, and HEK-SERT cells were grown for 48 hours and HEK-NET cells were grown for 72 hours to a confluency of ˜90%.
(§2) ASP^+ was obtained from Molecular Probes, Inc. and dissolved in KRH buffer to indicated concentrations. Trypan Blue was obtained from Sigma as a 0.4% solution and diluted to a final concentration of 30 uM in KRH buffer.
(§3) To limit the time delay between the addition of ASP^+ and the measurement of accumulation of ASP^+ during the kinetic assays, plates were divided in half and assayed one half at a time. At assay, the medium was removed from wells in the first 6 columns by aspiration, and the cells were incubated with Trypan Blue in KRH buffer for 20 minutes at 37° C.in room air. Then, medium was removed from the wells in the last 6 columns and replaced with Trypan Blue in KRH buffer.

DAT [2] = target: T2, DAT (Homo sapiens, UniProt Q01959); experiment: ASP+ uptake assay on FLEXstation, DAT-transfected HEK-293 cells; type: cell-based; parameters: expressed in transfected cells; details: FIG. 10B
T2 sequence (Q01959 whole entry): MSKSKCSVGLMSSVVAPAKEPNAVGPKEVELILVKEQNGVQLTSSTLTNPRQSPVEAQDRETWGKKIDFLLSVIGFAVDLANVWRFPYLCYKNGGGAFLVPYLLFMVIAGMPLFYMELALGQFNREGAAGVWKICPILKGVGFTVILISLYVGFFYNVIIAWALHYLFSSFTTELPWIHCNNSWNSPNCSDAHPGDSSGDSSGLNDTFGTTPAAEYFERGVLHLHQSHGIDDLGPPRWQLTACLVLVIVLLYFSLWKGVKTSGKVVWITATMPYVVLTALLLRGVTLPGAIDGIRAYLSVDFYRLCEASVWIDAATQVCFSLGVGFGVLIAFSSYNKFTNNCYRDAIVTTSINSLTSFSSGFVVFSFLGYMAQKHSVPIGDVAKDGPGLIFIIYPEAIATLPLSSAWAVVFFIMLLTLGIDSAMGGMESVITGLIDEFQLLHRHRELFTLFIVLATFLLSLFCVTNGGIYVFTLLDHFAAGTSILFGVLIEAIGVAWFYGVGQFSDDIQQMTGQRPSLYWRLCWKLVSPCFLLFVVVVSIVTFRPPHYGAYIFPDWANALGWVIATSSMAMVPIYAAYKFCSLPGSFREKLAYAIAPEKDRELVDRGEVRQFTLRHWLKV
Experimental: as §1, §2, §3

NET [3] = target: T1, NET; experiment: ASP+ accumulation in HEK-hNET cells by confocal fluorescence microscopy (phase I binding, phase II transport); parameters: NET-mediated ASP accumulation after pre-incubation (endocytosis test): dose or concentration left out as unconfirmed; details: for phase II (ASP+ transport) slope in the presence of the agent: 10 min pre-incubation with 10 μM cocaine or 30 μM NE; for phase II (ASP+ transport) slope in the presence of the agent / phase I (ASP+ binding) slope in the presence of the agent: then 2 μM ASP+, gramicidin 10 mg/mL 15 min before ASP+; for phase I (ASP+ binding) slope in the presence of the agent: 10 min pre-incubation with 10 μM desipramine, 10 μM cocaine or 30 μM NE
SERT [4] = target: T3, SERT (Homo sapiens, UniProt P31645); experiment: ASP+ uptake assay on FLEXstation, SERT-transfected HEK-293 cells; type: cell-based; details: FIG. 10C
T3 construct: expressed in transfected cells
T3 sequence (P31645 whole entry): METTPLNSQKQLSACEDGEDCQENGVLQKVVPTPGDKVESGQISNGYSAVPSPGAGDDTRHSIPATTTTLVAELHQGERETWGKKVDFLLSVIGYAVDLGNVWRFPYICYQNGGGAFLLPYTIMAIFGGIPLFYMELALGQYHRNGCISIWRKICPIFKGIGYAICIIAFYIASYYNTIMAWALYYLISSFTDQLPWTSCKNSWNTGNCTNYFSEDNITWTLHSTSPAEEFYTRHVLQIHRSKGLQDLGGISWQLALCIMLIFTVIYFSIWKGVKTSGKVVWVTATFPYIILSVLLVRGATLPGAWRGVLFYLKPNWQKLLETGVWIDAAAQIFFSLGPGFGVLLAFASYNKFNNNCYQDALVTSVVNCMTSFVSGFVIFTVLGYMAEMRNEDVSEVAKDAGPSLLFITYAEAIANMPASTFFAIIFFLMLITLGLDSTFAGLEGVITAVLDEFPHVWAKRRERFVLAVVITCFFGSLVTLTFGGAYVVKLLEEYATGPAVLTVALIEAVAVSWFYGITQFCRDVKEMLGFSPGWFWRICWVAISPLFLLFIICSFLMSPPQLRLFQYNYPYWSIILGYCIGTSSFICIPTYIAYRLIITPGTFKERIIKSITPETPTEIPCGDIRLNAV
Experimental: HEK-293 cells (American Type Culture Collection, Manassas, Va.) and HEK-293 cells stably transfected with SERT, NET, or DAT (Qian et al, 1997) were maintained in monolayer culture at 37° C., 5% CO2 in Dulbecco's modified Eagle's medium (DMEM) containing 10% fetal bovine serum, 2 mM glutamine, 100 units/ml penicillin, and 100 μg/ml streptomycin. Medium for the transfected lines was supplemented with G418 (250 μg/ml). Trypsin, glutamine, penicillin, streptomycin, G418, and phosphate-free DMEM were purchased from Life Technologies, Inc. or obtained from the Vanderbilt Media Core. For all transport assays, cells were plated on poly-D-lysine (0.1 mg/ml)-coated (0.1 mg/ml)-coated 96-well plates. […]
To limit the time delay between the addition of ASP^+ and the measurement of accumulation of ASP^+ during the kinetic assays, plates were divided in half and assayed one half at a time. […] After incubation, ASP^+ was added to the first 6 columns in 20 μL aliquots at indicated concentrations and accumulated fluorescence measured and recorded over time by the FLEXStation ultilizing SoftMax Pro Software. Then, ASP^+ was added to the last 6 columns and fluorescence accumulation measured and recorded. […]
Endpoint assays were conducted to evaluate the sensitivity of ASP^+ uptake to transporter antagonists. […] ASP^+ accumulation was measured after 10 minutes. […]

SERT [5] = target: T3, SERT; experiment: ASP+ accumulation in hSERT-transfected HEK cells by confocal fluorescence microscopy; type: cell-based; details: 2 mM ASP as printed in the FIG. 3 legend
Experimental: (§4) FIGS. 3A-3L. Monoamine transporters interact with ASP^+. Like HEK-hNET cells hDAT and hSERT transfected cells accumulate ASP^+. hNET (FIGS. 3A, 3B & 3C), hDAT (FIGS. 3D, 3E & 3F), hSERT (FIGS. 3G, 3H & 3I) and HEK-293 (FIGS. 3J, 3K & 3L) were exposed to 2 mM ASP for the times indicated in FIGS. 3J, 3K & 3L. The color gradient represented in FIG. 3J denotes the corresponding ASP^+ intensity values.
(§5) HEK-hNET cells were plated on 35 mm glass bottom Petri-dishes (MatTek, Ashland, Mass.) coated with poly-L-lysine three days prior to experimentation. The culture medium was aspirated, cells were immediately mounted on a Zeiss 410 confocal microscope and the microscope was focused on the center of the monolayer of cells. During the confocal measurment cells remain without buffer for approximately thirty seconds. Background autoflourescence was established by collecting images for ten seconds prior to the addition of KRH (see Radiolabeled Transport),[…] Glucose, 10 μM ascorbic acid, 10 μM pargalyine, 10 μM tropolone (Sigma, Boulder CO), and ASP^+. […] The effects of photobleaching on ASP^+ accumulation were determined by examining the rate of ASP^+ fluorescence at various acquisition rates. […]
(§6) The fluorescent images were processed using MetaMorph imaging software (Universal Imaging Corporation, Downington Pa.). […] All cells are subtracted against auto-fluorescence.

NET [6] = target: T1, NET; experiment: Fluorescence anisotropy of ASP+ in HEK-hNET cells; type: cell-based; parameters: expressed in transfected cells
Experimental: To evaluate ASP^+ binding to the surface membranes, HEK-hNET cells were exposed to 2 μM ASP^+ with horizontal polarizer (FIG. 5C), with the polarizer rapidly switching to the vertical position. Cells were imaged with alternating polarizations for 3 minutes to measure light intensity in the horizontal (Ih) and vertical (Iv) positions in order to calculate the anisotropy ratio, r=(Iv−gIh)/(Iv+2 g Ih). The factor g was determined by using a half wave plate as described by Blackman et al. (1996). In this formulation, r =0.4 implies an immobile source (Smith et al., 1999). Surface anisotropy was measured from the cell circumference, taken as 1 pixel width. Cytosolic anisotropy was measured near the center of the cell, approximately 5 pixel widths from the membrane.
Notice that rapid accumulation, which peaks at the cell edges (arrows), remains essentially constant between 3 and 180 sec., whereas brightness at the cell center (between arrows) gradually increases over this same period. Furthermore, accumulation at the center occurs at the same rate as phase II (compare phase II slope in FIG. 4 with center elevation in FIG. 5A). […] To test this interpretation the inventors measured the anisotropy of light from cell edges and cell centers.

NET [7] = target: T1, NET; experiment: [3H]NE accumulation (radiolabeled transport assay) in hNET-transfected HEK-293 cells; type: cell-based; parameters: expressed in transfected cells; details: Cheng-Prusoff correction, non-specific by 10 μM desipramine, N=5, mean±S.E.M., read-out: Ki, inhibition of [3H]NE accumulation
Experimental: FIG. 1. MPP^+ and ASP^+ inhibit NE accumulation. [^3H]NE accumulation was measured in the hNET-transfected HEK-293 cells in the presence of increasing concentrations of ASP^+ or MPP^+ and normalized to similar data in the absence of an inhibitor. […]. The data were fit to NE transport remaining by the equation y=100/(1+([I]/IC50)^n), where [I] is the concentration of ASP^+ or MPP^+ and Ki values were determined using Cheng-Prusoff correction for substrate concentration. […] Values are represented as means±S.E.M., N=5.
All accumulation studies were performed at room temperature (22° C.) unless otherwise indicated. HEK-hNET cells were plated on poly-L-lysine coated 24-well tissue culture plates at 10^5 cells per well three days prior to performing transport assays. The cells were at approximately 90% confluence on the third day. The medium was removed by aspiration. Cells were then pre-incubated for 10 min in Krebs-Ringer's-Hepes (KRH: in mM 130 NaCl, 1.3 KCl, 2.2 CaCl2, 1.2 MgSO4, 1.2 KH2PO4, 10 Hepes, and 1.8 g/L glucose, pH 7.4) medium with or without 10 μM desipramine. […]. Pargyline (10 μM) and ascorbic acid (10 μM) were added to prevent metabolism and oxidation of NE, respectively. The assay mixture was aspirated after 10 minutes and cells were washed three times with 4° C. […] Accumulated [^3H]NE was determined by liquid scintillation of 1% (w/v) sodium dodecylsulphate solubilized cells. […]

DAT [8] = target: T2, DAT; experiment: ASP+ accumulation in hDAT-transfected HEK cells by confocal fluorescence microscopy; type: cell-based; parameters: expressed in transfected cells; host or cells: HEK-293; details: 2 mM ASP as printed in the FIG. 3 legend
Experimental: as §4, §5, §6

NET [9] = type: cell-based; details: 2 μM ASP+, 10 min pre-incubation with 10 μM desipramine
Experimental: SCG neurons were dissociated by trituration followed by digestion with 0.25% trypsin and 0.3% collagenase. Non-neuronal cells were removed by preplating on uncoated, Falcon 60 mm plates. Neurons were cultured on poly-L-ornithine/laminin/poly D-lysine coated MatTek Dishes at a density of 3000-4000 cells/well in F-14^+ media containing 5% fetal calf serum, 2 mM L-glutamine, 60 ng/ml progesterone, 16 mg/ml putrescine, 400 ng/ml L-thyroxine, 38 ng/ml sodium selenite, 340 ng/ml tri-iodothyroxine, 5 mg/ml insulin, penicillin/streptomycin, 10 μM fluorodeoxyuridine and 20 ng/ml NGF. The neurons were maintained for 3-5 days in the presence of NGF before use.
The interactions of ASP^+ with NET in primary tissue culture neurons were also examined.

OCT = details: 10 μM; cited from earlier work

T1 sequence (P23975 whole entry): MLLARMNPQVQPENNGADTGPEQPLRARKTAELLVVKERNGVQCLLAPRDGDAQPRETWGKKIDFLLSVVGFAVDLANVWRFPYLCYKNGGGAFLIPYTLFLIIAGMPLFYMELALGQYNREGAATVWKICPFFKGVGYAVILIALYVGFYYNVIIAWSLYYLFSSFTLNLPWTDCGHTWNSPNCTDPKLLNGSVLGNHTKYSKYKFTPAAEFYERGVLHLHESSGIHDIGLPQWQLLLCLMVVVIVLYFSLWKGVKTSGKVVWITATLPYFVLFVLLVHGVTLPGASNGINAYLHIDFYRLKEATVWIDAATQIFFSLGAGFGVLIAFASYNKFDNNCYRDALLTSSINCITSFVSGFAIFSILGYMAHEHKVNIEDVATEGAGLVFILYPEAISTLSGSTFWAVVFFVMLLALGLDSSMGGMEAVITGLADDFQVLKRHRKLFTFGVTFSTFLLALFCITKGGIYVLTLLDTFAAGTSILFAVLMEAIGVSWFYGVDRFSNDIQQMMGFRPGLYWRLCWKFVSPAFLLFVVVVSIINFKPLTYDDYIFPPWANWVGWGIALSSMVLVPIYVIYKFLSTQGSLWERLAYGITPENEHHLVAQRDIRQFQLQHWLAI

CN(C)c1ccc(C=Cc2cc[n+](C)cc2)cc1 [ASP^+, 4-(4-dimethylaminostyrl)-N-methylpyridinium]
concentration-response of ASP+ accumulation, NET (NET [1]): concentration-dependent accumulation | concentration-response of ASP+ accumulation, DAT (DAT [2]): concentration-dependent accumulation | ASP+ accumulation by cells expressing NET (NET [3]; 800 nM ASP+, images at 0, 3 and 180 seconds): accumulate | Phase I n (NET [3]; exponent n of the phase I fit): 1.15±0.30 | Phase II n (NET [3]; exponent n of the phase II fit): 1.51±0.35 | Phase I Vmax (NET [3]; phase I (ASP+ binding) slope as a function of ASP+ concentration): 10.5±0.94 AFUs/sec | potency of ASP+ accumulation for hNET (NET [3]; summary statement): sub-μM potency | concentration-response of ASP+ accumulation, SERT (SERT [4]): concentration-dependent accumulation | ASP+ accumulation by hSERT transfected cells (SERT [5]): accumulate | fluorescence anisotropy, solution ASP+ (NET [6]): 0.15 | Ki (NET [7]): 780 ± 77 nM | ASP+ accumulation by hDAT transfected cells (DAT [8]): accumulate

C[n+]1ccc(-c2ccccc2)cc1 [MPP^+]
Ki (NET [7]): 600 ± 67 nM

NC[C@H](O)c1ccc(O)c(O)c1 [NE]
phase II (ASP+ transport) slope in the presence of the agent (NET [3]): reduced | phase I (ASP+ binding) slope in the presence of the agent (NET [3]): insignificant | effect on ASP+ accumulation in hNET-expressing HEK cells (NET [3]; summary statement): competed for

CNCCCN1c2ccccc2CCc2ccccc21 [desipramine]
sensitivity of ASP+ accumulation in SCG cells to desipramine (NET [9]): desipramine sensitive | effect on OCT activity (OCT): without affecting

OC[C@H]1O[C@@](CO)(O[C@H]2O[C@H](CO)[C@@H](O)[C@H](O)[C@H]2O)[C@@H](O)[C@@H]1O [sucrose]
NET-mediated ASP accumulation after pre-incubation (endocytosis test) (NET [3]; thirty-minute pre-incubation): unaffected

Gramicidin
phase II (ASP+ transport) slope in the presence of the agent (NET [3]): reduces the slope | phase I (ASP+ binding) slope in the presence of the agent (NET [3]): reduces the slope
